As usually defined, the inhibition is the percentage by which the read-out fell short of the control. As a reminder, the melting point is the temperature of the solid-liquid transition. As usually defined, the IC50 is the concentration needed to halve the response being measured. A low value points to greater potency in that assay.

SMILES strings stand for the structures. Read-outs that look alike come from different tables or passages of the source. A value given as a limit tells only on which side of the number the result lay.

For data set [1], the target named is T1, Steroid sulphatase (Steryl Sulphatase EC3.1.6.2) (Homo sapiens, UniProt P08842).
T1 construct: endogenous in cells; host or cells: MCF-7 human breast cancer cells
T1 sequence (P08842 22-583): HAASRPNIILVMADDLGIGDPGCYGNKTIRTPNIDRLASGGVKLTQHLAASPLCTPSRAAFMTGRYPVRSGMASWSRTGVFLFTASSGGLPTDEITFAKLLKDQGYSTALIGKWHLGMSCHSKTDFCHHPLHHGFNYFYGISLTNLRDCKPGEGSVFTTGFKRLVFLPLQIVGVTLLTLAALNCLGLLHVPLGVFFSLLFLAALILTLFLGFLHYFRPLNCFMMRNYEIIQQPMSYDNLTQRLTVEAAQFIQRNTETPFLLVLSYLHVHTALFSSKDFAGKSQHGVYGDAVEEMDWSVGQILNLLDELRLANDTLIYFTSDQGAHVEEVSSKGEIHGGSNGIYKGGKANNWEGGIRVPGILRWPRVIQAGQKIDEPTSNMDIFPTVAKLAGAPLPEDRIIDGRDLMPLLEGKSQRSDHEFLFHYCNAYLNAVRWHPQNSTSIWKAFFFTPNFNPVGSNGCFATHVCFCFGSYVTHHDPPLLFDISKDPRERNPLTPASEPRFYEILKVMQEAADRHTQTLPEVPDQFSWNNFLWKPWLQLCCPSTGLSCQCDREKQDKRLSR
In words: Steroid sulphatase activity in intact MCF-7 cells. Format: cell-based. The settings on record: for Steroid Sulphatase Activity: mean ± 1 S.D. The protocol: Steroid sulphatase is defined as: Steryl Sulphatase EC3.1.6.2.
Steroid sulphatase activity was measured in vitro using intact MCF-7 human breast cancer cells. This hormone dependent cell line is widely used to study the control of human breast cancer cell growth. […] Cells were maintained in Minimal Essential Medium (MEM) (Flow Laboratories, Irvine, Scotland) containing 20 mM HEPES, 5% foetal bovine serum, 2 mM glutamine, nonessential amino acids and 0.075% sodium bicarbonate. Up to 30 replicate 25 cm^2 tissue culture flasks were seeded with approximately 1×10^5 cells/flask using the above medium. Cells were grown to 80% confluency and medium was changed every third day.
Each batch of experiments included incubations of microsomes prepared from a sulphatase-positive human placenta (positive control) and flasks without cells (to assess apparent non-enzymatic hydrolysis of the substrate). The number of cell nuclei per flask was determined using a Coulter Counter after treating the cell monolayers with Zaponin. One flask in each batch was used to assess cell membrane status and viability using the Trypan Blue exclusion method (Phillips, H. J. (1973) In: Tissue culture and applications,[eds: Kruse, D. F. & Patterson, M. K.]; pp. 406–408; Academic Press, New York).
Unpaired Student's t-test was used to test the statistical significance of results.
An identical experimental protocol to that described in Example 4 was used to generate results for oestrone-3-N,N-diimethylsulphamate except that incubations contained oestrone-3-N,N-dimethylsulphaiate (5 concentrations: 0; 0.001 μM; 0.01 μM; 0.1 μM; 1 μM) in place of oestrone-3-sulphamate.

Data set [2] has as its target T2, Steroid sulphatase (Homo sapiens, UniProt P08842).
T2 sequence (P08842 22-583): T1 sequence (P08842 22-583)
In words: Steroid sulphatase activity in placental microsomes. Conditions: for Steroid Sulphatase Activity: mean of 2 estimates.

Data set [3] has as its target T3, Steroid sulphatase (Rattus norvegicus, UniProt P15589).
T3 sequence (P15589 20-577): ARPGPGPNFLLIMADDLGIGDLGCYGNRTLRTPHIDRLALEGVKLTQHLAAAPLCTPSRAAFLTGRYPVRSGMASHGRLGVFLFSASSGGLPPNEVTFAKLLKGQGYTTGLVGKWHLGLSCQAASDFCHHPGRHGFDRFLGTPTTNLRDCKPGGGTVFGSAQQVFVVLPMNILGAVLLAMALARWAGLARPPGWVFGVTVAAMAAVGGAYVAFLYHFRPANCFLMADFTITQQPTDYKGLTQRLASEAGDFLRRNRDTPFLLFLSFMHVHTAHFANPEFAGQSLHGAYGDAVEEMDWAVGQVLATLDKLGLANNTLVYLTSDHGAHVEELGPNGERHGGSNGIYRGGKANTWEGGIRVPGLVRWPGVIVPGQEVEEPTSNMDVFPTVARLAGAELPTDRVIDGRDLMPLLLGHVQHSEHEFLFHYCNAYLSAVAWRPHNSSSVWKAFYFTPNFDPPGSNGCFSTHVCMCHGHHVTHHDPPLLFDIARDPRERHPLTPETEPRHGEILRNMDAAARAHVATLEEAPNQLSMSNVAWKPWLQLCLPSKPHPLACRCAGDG
In words: % inhibition in vivo from a single dose (Example 9). On the set-up: from tissue; host or cells: tissue of treated animals; tissue not given. Conditions: single dose of 10 mg/kg.

Data set [4] deals with T3, Steroid sulphatase. The data set is described as follows: Steroid sulphatase activity in liver microsome preparations from rats treated subcutaneously. The class given is in vivo. On the set-up: except that the tissue source was rat liver; from tissue; host or cells: liver of female Wistar rats. The settings on record: 10 mg/kg/day s.c. for 7 days, rat liver microsomes; for Steroid Sulphatase Activity: mean ± 1 S.D., n = 3. A general note: Liver microsomes are a subcellular fraction often used to study metabolism.

The target in a further data set is T4, oestrone sulphatase (Homo sapiens, UniProt P08842).
T4 sequence (P08842 22-583): T1 sequence (P08842 22-583)
The class given is cell-based.

Data set [5] deals with T1, Steroid sulphatase (Steryl Sulphatase EC3.1.6.2). The data set is described as follows: Steroid sulphatase activity in MCF-7 cells pre-incubated with inhibitor and washed. Format: cell-based. Conditions: pre-treatment 2 hours with 0.1 μM, cells washed 3 times; for Steroid Sulphatase Activity: mean ± 1 S.D., n = 3.
The target of a further data set is T5, E1-STS (Homo sapiens, UniProt P08842).
T5 construct: from tissue; host or cells: placental microsomes (100,000 g fraction)
T5 sequence (P08842 22-583): T1 sequence (P08842 22-583)
The data set is described as follows: Hydrolysis of coumarin sulphate (12) by placental microsomes, TLC. Format: biochemical. The settings on record: EMATE 10 μM.

For data set [6], the target named is T2, Steroid sulphatase. The data set is described as follows: biochemical.

For the molecule `CCCCCCCOc1ccc(OS(N)(=O)=O)cc1` [9a], the melting point is > 42 °C (dec.). For the same molecule, the inhibition at 10 µM in data set [1] (MCF7) is 99 ± 2%. Moreover, on Steroid sulphatase [2], the “% Inhibition in Placental Microsomes at 10 μM” value (shortened to “% Inhibition … at 10 μM”) came to 40±2%. Besides, on Steroid sulphatase [3], the “% Inhibition in vivo from a single dose of 10 mg/kg” value (“% Inhibition in vivo” for short) came to 22±3%.

As for `COc1cc(CNC(=O)CCCC/C=C/C(C)C)ccc1OS(N)(=O)=O` [9b, (E) Methyl-γ-methyl-6-nonenamide-N-(3-methboxyphenyl4-O-sulphanate)], at 10 µM the inhibition in [1] (MCF7) was 99 ± 2%. Further, at Steroid sulphatase [2], the “% Inhibition … at 10 μM” value was 40±2%. The “% Inhibition in vivo” value on Steroid sulphatase [3] is 22±3%.

On to `NS(=O)(=O)Oc1ccccc1[N+](=O)[O-]` [9c, 2-Nitrophenol-O-sulfamate], for which at 10 µM the inhibition in data set [1] (MCF7) was 99 ± 2%. Moreover, at Steroid sulphatase [2], the “% Inhibition … at 10 μM” value is listed as 40±2%. Also, the “% Inhibition in vivo” value on Steroid sulphatase [3] worked out at 22±3%.

As for `C[C@]12CC[C@@H]3c4ccc(OS(=O)(=O)O)cc4CC[C@H]3[C@@H]1CCC2=O` [E1-S, Oestrone-3-sulphate, reference compound], the results for the “Steroid Sulphatase Activity” value on Steroid sulphatase [4] (assay substrate DHA-S) and at Steroid sulphatase [4] (assay substrate E1-S) were 1.71 ± 0.1 nmol/30 min/200 mg protein and 20.6 ± 0.4 nmol/30 min/200 mg protein, respectively.

Take `NS(=O)(=O)Oc1ccc(-c2coc3cc(OS(N)(=O)=O)cc(O)c3c2=O)cc1` [Isoflavone 5-hydroxy-4′,7-bissulphamate, 5-Hydroxy Isoflavone4′-O,O-Disulphamate]: the “% Inhibition MCF-7 Cells” value at oestrone sulphatase (0.1 μM) is 28%.

Take `NS(=O)(=O)Oc1ccc(-c2coc3cc(O)cc(O)c3c2=O)cc1` [Isoflavone 5.7-dihydroxy-4′-sulphamate, 5,7-Dihydroxy Isoflavone-4′-O-Sulphamate]: the results for the “% Inhibition MCF-7 Cells” value on oestrone sulphatase (0.1 μM), on oestrone sulphatase (1.0 μM) and on oestrone sulphatase (10.0 μM) were 23%, 83% and 99%, respectively.

For `CN(C)S(=O)(=O)Oc1ccc2c(c1)CC[C@@H]1[C@@H]2CC[C@]2(C)C(=O)CC[C@@H]12` [Oestrone-3-N,N-dimethylsulphamate, oestrone-3-N.N-dimethylsulphamate], the “% reduction over control (% inhibition)” value in data set [1] (inhibitor 0.001 μM) was 17.3%; in data set [1] (inhibitor 0.01 μM) it was 44.3%; in data set [1] (inhibitor 0.1 μM) it was 78.9%; in data set [1] (inhibitor 1 μM), 85.6%; in data set [5] it was 18.8%. Also, the “Steroid Sulphatase Activity” value in data set [1] (inhibitor 0.001 μM) stood at 68.33 ± 3.2 fmol/20 hr/10^6 cells; in [1] (inhibitor 0.01 μM, n = 3), 46.0 ± 4.9 fmol/20 hr/10^6 cells; in [1] (inhibitor 0.1 μM, n = 3) it was 17.43 ± 4.3 fmol/20 hr/10^6 cells; in data set [1] (inhibitor 1 μM, n = 3), 11.89 ± 3.7 fmol/20 hr/10^6 cells; in data set [5], 53.1 ± 3.4 fmol/20 hr/10^6 cells.

On to `C[C@]12CC[C@@H]3c4ccc(OS(N)(=O)=O)cc4CC[C@H]3[C@@H]1CCC2=O` [Oestrone-3-sulphamate], for which the inhibition at 10 pM in data set [1] (MCF7, inhibitor 0.01 nM, read-out: % reduction over control (% inhibition)) was 17.2%. In [1] (MCF7, inhibitor 0.1 nM, read-out: % reduction over control (% inhibition)), the inhibition at 0.0001 µM is 60.9%. The inhibition at 0.001 µM in data set [1] (MCF7, inhibitor 1 nM, read-out: % reduction over control (% inhibition)) came to 95%. The inhibition at 0.01 µM in data set [1] (MCF7, inhibitor 0.01 μM, read-out: % reduction over control (% inhibition)) worked out at 98.8%. Further, the inhibition at 0.1 µM in data set [1] (MCF7, inhibitor 0.1 μM, read-out: % reduction over control (% inhibition)) came out at 99.2%. In [1] (MCF7, inhibitor 1 μM, read-out: % reduction over control (% inhibition)), the inhibition at 1 µM stood at 99.5%. Moreover, the “Steroid Sulphatase Activity” value is 362.3 ± 21.2 fmol/20 hr/10^6 cells in [1] (inhibitor 0.01 pM, n = 3); 330.7 ± 17.8 fmol/20 hr/10^6 cells in [1] (inhibitor 0.1 pM, n = 3); 321.8 ± 6.2 fmol/20 hr/10^6 cells in [1] (inhibitor 1 pM, n = 3); 265.1 ± 11.0 fmol/20 hr/10^6 cells in data set [1] (inhibitor 0.01 nM, n = 3); 124.8 ± 12.4 fmol/20 hr/10^6 cells in data set [1] (inhibitor 0.1 nM, n = 3); 16.49 ± 4.7 fmol/20 hr/10^6 cells in data set [1] (inhibitor 1 nM, n = 3). The “Steroid Sulphatase Activity” value is on record as 3.92 ± 0.4 fmol/20 hr/10^6 cells in data set [1] (inhibitor 0.01 μM, n = 3); 2.53 ± 1.1 fmol/20 hr/10^6 cells in data set [1] (inhibitor 0.1 μM, n = 3); 1.68 ± 0.7 fmol/20 hr/10^6 cells in [1] (inhibitor 1 μM, n = 3); 353.3 ± 39.0 fmol/20 hr/10^6 cells in data set [1] (inhibitor 1 fM, n = 3); 1.7 ± 0.2 fmol/20 hr/10^6 cells in [5]; 430.4 pmol/hr/0.1 mg protein at Steroid sulphatase [2] (inhibitor 0.05 μM). The “Steroid Sulphatase Activity” value at Steroid sulphatase [2] (inhibitor 0.1 μM) is given as 305.9 pmol/hr/0.1 mg protein; on Steroid sulphatase [2] (inhibitor 0.2 μM), 140.0 pmol/hr/0.1 mg protein; on Steroid sulphatase [2] (inhibitor 0.4 μM), 83.3 pmol/hr/0.1 mg protein; on Steroid sulphatase [2] (inhibitor 0.6 μM), 61.8 pmol/hr/0.1 mg protein; at Steroid sulphatase [2] (inhibitor 0.8 μM), 49.2 pmol/hr/0.1 mg protein; at Steroid sulphatase [2] (inhibitor 1.0 μM) it was 51.6 pmol/hr/0.1 mg protein. Moreover, the “Steroid Sulphatase Activity” value on Steroid sulphatase [4] (assay substrate DHA-S) is on record as 0.1 ± 0.01 nmol/30 min/200 mg protein; at Steroid sulphatase [4] (assay substrate E1-S), 0.34 ± 0.1 nmol/30 min/200 mg protein. In addition, at E1-STS, the “effect on hydrolysis of compound (12) by E1-STS (in words)” value was “reduced the hydrolysis of compound (12) by E1-STS”. Moreover, on Steroid sulphatase [6], half-maximal inhibition (IC50) required 70 nM. The “% reduction over control (% inhibition)” value is 44.0% at Steroid sulphatase [2] (0.05 µM); 60.2% at Steroid sulphatase [2] (0.1 μM); 81.8% on Steroid sulphatase [2] (0.2 µM); 89.2% at Steroid sulphatase [2] (0.4 µM); 92.0% at Steroid sulphatase [2] (0.6 µM); 93.6% at Steroid sulphatase [2] (0.8 µM). In addition, at Steroid sulphatase [2] (1 μM), the “% reduction over control (% inhibition)” value is given as 93.3%. Further, the “% reduction over control” value at Steroid sulphatase [4] (assay substrate DHA-S) stood at 94.2%; on Steroid sulphatase [4] (assay substrate E1-S), 98.4%.

The record behind these values is patent US7098199B2 (Sterix Limited, priority 1991, dated 2006).
